Laboratory results from the supplement of paper PMC11451515.

Experiments:
Settings in all cases: 48 h
NOMO1 [1] = assay: cell viability relative to DMSO control; higher = less cytotoxic
Method in brief: (§1)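 NOMO1 or SEM (500 cells/well) or P12-Ichikawa (1000 cells/well) leukemia cells were adapted for at least four passages in each medium. They were seeded in 1536-well plates (5 μl) and pin-dosed with library compounds in DMSO over an 11-point threefold series, 47 μM to 0.79 nM. CellTiter-Glo One luminescence was read after 48 h at 37°C. Viability is the per-plate percentage relative to DMSO wells, with cell-free wells as background.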

P12-Ichikawa [2] = assay: as above
Method in brief: as §1

SEM cells [3] = assay: as above
Method in brief: as §1

NOMO1 [4] = assay: AUC of viability dose-response curve (% viability x log10 dose units); higher = less sensitive
Method in brief: (§2)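 Leukemia cells adapted to each medium (500 or 1000 cells/well, 1536-well plates) were exposed to library compounds in DMSO for 48 h at 37°C at 11 threefold doses, 47 μM to 0.79 nM. Luminescence by CellTiter-Glo One was normalised per plate to DMSO and cell-free wells, then fitted with a four-parameter log-logistic curve on log10 dose. Curves above full viability were scaled and quality-control failures removed before area under the curve was integrated by trapezoidal rule.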

P12-Ichikawa [5] = assay: as above
Method in brief: as §2

SEM cells [6] = assay: as above
Method in brief: as §2

CCN(CCO)CCCOc1ccc2c(Nc3cc(CC(=O)Nc4cccc(F)c4)[nH]n3)ncnc2c1
cell viability [%]
Settings | NOMO1 [1] | P12-Ichikawa [2] | SEM cells [3]
HPLM + 10% dialyzed FBS, 0.000781 µM | 110 | 99.6 | 118
HPLM + 10% dialyzed FBS, 0.00234 µM | 128 | 99.8 | 103
HPLM + 10% dialyzed FBS, 0.00702 µM | 102 | 107 | 110
HPLM + 10% dialyzed FBS, 0.0211 µM | 114 | 109 | 119
HPLM + 10% dialyzed FBS, 0.0632 µM | 106 | 104 | 105
HPLM + 10% dialyzed FBS, 0.19 µM | 85.7 | 43.9 | 82.5
HPLM + 10% dialyzed FBS, 0.569 µM | 82.7 | 11.6 | 40.6
HPLM + 10% dialyzed FBS, 1.71 µM | 76.2 | 10.8 | 32.3
HPLM + 10% dialyzed FBS, 5.12 µM | 77.8 | 9.25 | 34.8
HPLM + 10% dialyzed FBS, 15.4 µM | 81.6 | 9.18 | 20.6
HPLM + 10% dialyzed FBS, 46.1 µM | 45.1 | 10.6 | 15.9
RPMI 5 mM glucose + 10% FBS, 0.000781 µM | 113 | 102 | 114
RPMI 5 mM glucose + 10% FBS, 0.00234 µM | 105 | 110 | 94.6
RPMI 5 mM glucose + 10% FBS, 0.00702 µM | 120 | 115 | 118
RPMI 5 mM glucose + 10% FBS, 0.0211 µM | 113 | 117 | 102
RPMI 5 mM glucose + 10% FBS, 0.0632 µM | 98.5 | 108 | 119
RPMI 5 mM glucose + 10% FBS, 0.19 µM | 65.6 | 45.4 | 76.4
RPMI 5 mM glucose + 10% FBS, 0.569 µM | 50.5 | 16.7 | 22.4
RPMI 5 mM glucose + 10% FBS, 1.71 µM | 44.7 | 14.1 | 19.7
RPMI 5 mM glucose + 10% FBS, 5.12 µM | 40.9 | 11 | 21.9
RPMI 5 mM glucose + 10% FBS, 15.4 µM | 54.1 | 10.5 | 12.2
RPMI 5 mM glucose + 10% FBS, 46.1 µM | 54 | 16.3 | 5.9
RPMI 5 mM glucose + 10% dialyzed FBS, 0.000781 µM | 110 | 102 | 100
RPMI 5 mM glucose + 10% dialyzed FBS, 0.00234 µM | 110 | 112 | 113
RPMI 5 mM glucose + 10% dialyzed FBS, 0.00702 µM | 105 | 111 | 108
RPMI 5 mM glucose + 10% dialyzed FBS, 0.0211 µM | 111 | 111 | 109
RPMI 5 mM glucose + 10% dialyzed FBS, 0.0632 µM | 104 | 114 | 104
RPMI 5 mM glucose + 10% dialyzed FBS, 0.19 µM | 63.8 | 68.6 | 73.8
RPMI 5 mM glucose + 10% dialyzed FBS, 0.569 µM | 52.6 | 20.7 | 25.5
RPMI 5 mM glucose + 10% dialyzed FBS, 1.71 µM | 50.2 | 21 | 22.2
RPMI 5 mM glucose + 10% dialyzed FBS, 5.12 µM | 51.7 | 21.1 | 25
RPMI 5 mM glucose + 10% dialyzed FBS, 15.4 µM | 56.9 | 18.5 | 13.1
RPMI 5 mM glucose + 10% dialyzed FBS, 46.1 µM | 80.6 | 26.9 | 4.04

AUC of viability dose-response curve
Settings | NOMO1 [4] | P12-Ichikawa [5] | SEM cells [6]
HPLM + 10% dialyzed FBS | 372 | 256 | 302
RPMI 5 mM glucose + 10% FBS | 329 | 259 | 280
RPMI 5 mM glucose + 10% dialyzed FBS | 355 | 287 | 282

C[N]1C=C(C2=CC=CC=C12)\C3=C(\C(=O)NC3=O)C4=C[N](C5CCN(CC5)CC6=NC=CC=C6)C7=C4C=CC=C7
cell viability [%]
Settings | NOMO1 [1] | P12-Ichikawa [2] | SEM cells [3]
HPLM + 10% dialyzed FBS, 0.000781 µM | 115 | 110 | 98.6
HPLM + 10% dialyzed FBS, 0.00234 µM | 115 | 116 | 113
HPLM + 10% dialyzed FBS, 0.00702 µM | 110 | 115 | 102
HPLM + 10% dialyzed FBS, 0.0211 µM | 116 | 119 | 119
HPLM + 10% dialyzed FBS, 0.0632 µM | 133 | 118 | 114
HPLM + 10% dialyzed FBS, 0.19 µM | 116 | 123 | 116
HPLM + 10% dialyzed FBS, 0.569 µM | 133 | 120 | 125
HPLM + 10% dialyzed FBS, 1.71 µM | 131 | 118 | 118
HPLM + 10% dialyzed FBS, 5.12 µM | 129 | 118 | 112
HPLM + 10% dialyzed FBS, 15.4 µM | 120 | 120 | 71.6
HPLM + 10% dialyzed FBS, 46.1 µM | 140 | 117 | 109
RPMI 5 mM glucose + 10% FBS, 0.000781 µM | 100 | 118 | 95.2
RPMI 5 mM glucose + 10% FBS, 0.00234 µM | 118 | 126 | 108
RPMI 5 mM glucose + 10% FBS, 0.00702 µM | 110 | 119 | 114
RPMI 5 mM glucose + 10% FBS, 0.0211 µM | 107 | 115 | 119
RPMI 5 mM glucose + 10% FBS, 0.0632 µM | 113 | 118 | 112
RPMI 5 mM glucose + 10% FBS, 0.19 µM | 110 | 123 | 104
RPMI 5 mM glucose + 10% FBS, 0.569 µM | 109 | 127 | 111
RPMI 5 mM glucose + 10% FBS, 1.71 µM | 101 | 124 | 93.3
RPMI 5 mM glucose + 10% FBS, 5.12 µM | 105 | 116 | 102
RPMI 5 mM glucose + 10% FBS, 15.4 µM | 129 | 116 | 66.4
RPMI 5 mM glucose + 10% FBS, 46.1 µM | 120 | 125 | 87.5
RPMI 5 mM glucose + 10% dialyzed FBS, 0.000781 µM | 102 | – | 98.6
RPMI 5 mM glucose + 10% dialyzed FBS, 0.00234 µM | 113 | – | 124
RPMI 5 mM glucose + 10% dialyzed FBS, 0.00702 µM | 110 | – | 109
RPMI 5 mM glucose + 10% dialyzed FBS, 0.0211 µM | 113 | – | 118
RPMI 5 mM glucose + 10% dialyzed FBS, 0.0632 µM | 119 | – | 118
RPMI 5 mM glucose + 10% dialyzed FBS, 0.19 µM | 116 | – | 127
RPMI 5 mM glucose + 10% dialyzed FBS, 0.569 µM | 118 | – | 119
RPMI 5 mM glucose + 10% dialyzed FBS, 1.71 µM | 116 | – | 111
RPMI 5 mM glucose + 10% dialyzed FBS, 5.12 µM | 134 | – | 101
RPMI 5 mM glucose + 10% dialyzed FBS, 15.4 µM | 138 | – | 69.2
RPMI 5 mM glucose + 10% dialyzed FBS, 46.1 µM | 113 | – | 117

AUC of viability dose-response curve
Settings | NOMO1 [4] | P12-Ichikawa [5] | SEM cells [6]
HPLM + 10% dialyzed FBS | 458 | 472 | 461
RPMI 5 mM glucose + 10% FBS | 424 | 475 | 446
RPMI 5 mM glucose + 10% dialyzed FBS | 445 | 472 | 454

CCOc1cc2ncc(C#N)c(Nc3ccc(OCc4ccccn4)c(Cl)c3)c2cc1NC(=O)/C=C/CN(C)C
cell viability [%]
Settings | NOMO1 [1] | P12-Ichikawa [2] | SEM cells [3]
HPLM + 10% dialyzed FBS, 0.000781 µM | – | 116 | 109
HPLM + 10% dialyzed FBS, 0.00234 µM | – | 124 | 122
HPLM + 10% dialyzed FBS, 0.00702 µM | – | 122 | 126
HPLM + 10% dialyzed FBS, 0.0211 µM | – | 115 | 122
HPLM + 10% dialyzed FBS, 0.0632 µM | – | 117 | 111
HPLM + 10% dialyzed FBS, 0.19 µM | – | 115 | 107
HPLM + 10% dialyzed FBS, 0.569 µM | – | 62.5 | 19.4
HPLM + 10% dialyzed FBS, 1.71 µM | – | 6.67 | 9.21
HPLM + 10% dialyzed FBS, 5.12 µM | – | 4.65 | 7.03
HPLM + 10% dialyzed FBS, 15.4 µM | – | 4.41 | 6.73
HPLM + 10% dialyzed FBS, 46.1 µM | – | 3.56 | 4.72
RPMI 5 mM glucose + 10% FBS, 0.000781 µM | 119 | 111 | 87
RPMI 5 mM glucose + 10% FBS, 0.00234 µM | 109 | 125 | 95.4
RPMI 5 mM glucose + 10% FBS, 0.00702 µM | 114 | 120 | 83.4
RPMI 5 mM glucose + 10% FBS, 0.0211 µM | 105 | 118 | 80.8
RPMI 5 mM glucose + 10% FBS, 0.0632 µM | 112 | 120 | 79.7
RPMI 5 mM glucose + 10% FBS, 0.19 µM | 124 | 121 | 31.9
RPMI 5 mM glucose + 10% FBS, 0.569 µM | 49.7 | 121 | 7.35
RPMI 5 mM glucose + 10% FBS, 1.71 µM | 20.8 | 11.3 | 5.75
RPMI 5 mM glucose + 10% FBS, 5.12 µM | 13.6 | 6.84 | 5.48
RPMI 5 mM glucose + 10% FBS, 15.4 µM | 11.2 | 5.28 | 4.73
RPMI 5 mM glucose + 10% FBS, 46.1 µM | 8.95 | 5.4 | 3.12
RPMI 5 mM glucose + 10% dialyzed FBS, 0.000781 µM | 116 | 119 | 119
RPMI 5 mM glucose + 10% dialyzed FBS, 0.00234 µM | 111 | 130 | 133
RPMI 5 mM glucose + 10% dialyzed FBS, 0.00702 µM | 103 | 121 | 117
RPMI 5 mM glucose + 10% dialyzed FBS, 0.0211 µM | 109 | 122 | 116
RPMI 5 mM glucose + 10% dialyzed FBS, 0.0632 µM | 117 | 119 | 121
RPMI 5 mM glucose + 10% dialyzed FBS, 0.19 µM | 113 | 118 | 95.9
RPMI 5 mM glucose + 10% dialyzed FBS, 0.569 µM | 83.9 | 122 | 16.9
RPMI 5 mM glucose + 10% dialyzed FBS, 1.71 µM | 36.2 | 13.5 | 8.13
RPMI 5 mM glucose + 10% dialyzed FBS, 5.12 µM | 18.3 | 7.04 | 6.73
RPMI 5 mM glucose + 10% dialyzed FBS, 15.4 µM | 13 | 5.08 | 6.47
RPMI 5 mM glucose + 10% dialyzed FBS, 46.1 µM | 11.5 | 4.99 | 4.68

AUC of viability dose-response curve
Settings | NOMO1 [4] | P12-Ichikawa [5] | SEM cells [6]
HPLM + 10% dialyzed FBS | 279 | 293 | 276
RPMI 5 mM glucose + 10% FBS | 303 | 320 | 209
RPMI 5 mM glucose + 10% dialyzed FBS | 328 | 321 | 268
